Measurements as given in patent publication US5834427A, “Casein phosphopeptide, casein containing same and process for the preparation thereof” (Han; Sang Kee, priority 1995, dated 1998).
No end group written: not given here.

Assay: Efficacy test for calcium solubilizing effect in vivo (soluble calcium in small intestine contents, atomic absorption spectrometer)
Set-up: species or system Wister Rats
Conditions: for Calcium concentration in the small intestine, Lower part / Calcium concentration in the small intestine, Total / Calcium concentration in the small intestine, Upper part: measured one hour after feeding, mean ± standard deviation
Method: Efficacy test for calcium solubilizing effect In vivo
Forty Wister Rats weighing about 120 g on an average were supplied with a controlled diet consisting of 24 wt % of crude proteins, 5 wt % of crude fats, 60 wt % of starches, 5 wt % of crude fibers, 5 wt % of minerals and 1 wt % of vitamins for a week and then starved for 24 hours. The rats were divided into 4 groups, each group including 10 rats.
Rats of the first group were supplied with a controlled diet including 10 wt % of the beta-casein H for 1.5 hours.
Rats of the second group were supplied with a controlled diet including 10 wt % of a conventional beta-casein for 1.5 hours.
Rats of the third group were supplied with a controlled diet including 1 wt % of the CPP in accordance with the present invention for 1.5 hours.
Rats of the fourth group were supplied with a controlled diet including 1 wt % of the conventional CPP for 1.5 hours.
All rats were allowed to freely have the controlled diets as much as they can. One hour after the completion of the above feeding, all rats were anesthetized, and the small intestines were excised therefrom. The small intestines were washed with a saline solution and then divided into two parts, i.e, the upper part and the lower part.
Thereafter, the contents in the small intestine were isolated, homogenized and centrifugated. A calcium in the supernant was measured three times by an atomic absorption spectrometer (Perkin Elmer Co.).

[1] = CPP feed, 3rd Group (inventive CPP) over 4th Group (conventional CPP)
[2] = CPP feed, controlled diet including 1 wt % CPP for 1.5 hours
[3] = casein feed, controlled diet including 10 wt % casein for 1.5 hours

Molecule | Improvement (%) of calcium concentration, Lower part [1] | Improvement (%) of calcium concentration, Total [1] | Improvement (%) of calcium concentration, Upper part [1] | Improvement (%) of calcium concentration, Total (CPP feed, 3rd Group (inventive CPP) over 4th Group (conventional CPP), listed as present CPP) | Calcium concentration in the small intestine, Lower part [2] | Calcium concentration in the small intestine, Total [2] | Calcium concentration in the small intestine, Upper part [2] | Calcium concentration in the small intestine, Total (CPP feed, controlled diet including 1 wt % CPP for 1.5 hours, listed as present CPP) | Calcium concentration in the small intestine, Lower part [3] | Calcium concentration in the small intestine, Total [3] | Calcium concentration in the small intestine, Upper part [3]
CPP in accordance with the present invention: casein phosphopeptide of SEQ. ID NO: 1, 28 amino acids, 25th Arg of the conventional CPP substituted by Cys (RELEELNVPGEIVESLSSSEESITCINK; also: phosphorylated, sites not given here) | 29.8% | 23.1% | 7.0% | 23% | 51.02 ± 3.1 ppm | 68.20 ± 2.5 ppm | 17.18 ± 1.9 ppm | 68.20 ppm | – | – | –
conventional beta-casein: conventional beta-casein fed to the second group as comparison (protein, UniProt P02666 16-224, looked up) Beta-casein: RELEELNVPGEIVESLSSSEESITRINKKIEKFQSEEQQQTEDELQDKIHPFAQTQSLVYPFPGPIPNSLPQNIPPLTQTPVVVPPFLQPEVMGVSKVKEAMAPKHKEMPFPKYPVEPFTESQSLTLTDVENLHLPLPLLQSWMHQPHQPLPPTVMFPPQSVLSLSQSKVLPVPQKAVPYPQRDMPIQAFLLYQEPVLGPVRGPFPIIV | – | – | – | – | – | – | – | – | 35.11 ± 2.3 ppm | 50.60 ± 2.0 ppm | 15.49 ± 1.7 ppm
